Series [1] can be described thus: Rate constant of the photoreaction between compound and DNA. In kind it is ADME.
Series [2] relates to Mus musculus. Put plainly: In vivo inhibition of epidermal DNA synthesis in mouse after oral administration. The series is classed as functional.
Series [3] can be described thus: Frequency of binding sites i.e., number of ligands bound per nucleotide.
The test system of another series is Nucleic Acid. Put plainly: Association constant to an isolated site calf thymus DNA. In kind it is nucleic-acid assay. Conditions: Bos taurus.
A short description of series [4]: In vivo inhibition of epidermal DNA synthesis in mouse after oral administration relativ to that of 8-MOP. In kind it is functional.
Series [5] can be described thus: Partition coefficient between octanol and water. The series is classed as physicochemical.
Series [6] in a line: In vivo inhibition of epidermal DNA synthesis in mouse after topical application relative to that of 8-MOP. In kind it is functional.
Series [7] has as its system Mus musculus. Put plainly: In vivo inhibition of epidermal DNA synthesis in mouse after topical application. In kind it is functional.
Series [8] can be described thus: Number of nucleotides occluded by a bound furocoumarin molecule.
Series [9] can be described thus: Solubility in water was determined. In kind it is physicochemical.

Converted amounts (≈) assume the structure as drawn.

As a reminder, the Inhibition is the relative decrease from the control value, in per cent. Read a high Inhibition as strong suppression. As to `Cc1cc2occ(C)c2c2oc(=O)ccc12`, in series [1], the Rate constant worked out at 0.059 min⁻¹. In addition, the Inhibition is 53.33% in the series with Mus musculus [2] and 58.41% in the series with Mus musculus [7]. In series [3], this compound displayed a 1/n of 0.08. This compound also displayed a Binding constant in the series on Nucleic Acid of 5400. Besides, the Relative activity is given as 1.36 in [4] and 0.95 in [6]. The compound further had a Partition coefficient in series [5] of 1041. For the same compound, in series [8], the Number was found to be 12.5. Also, the Solubility stood at 0.000022 M l-1 in [9] (buffer) and 4.7 µg/mL (≈ 21.9 µM) in series [9] (water, read-out: Solubility).
The compound `O=c1ccc2ccc3occc3c2o1` [ANGELICIN] had a Rate constant in series [1] of 0.011 min⁻¹. Further, the Inhibition in the series with Mus musculus [2] came out at 28%; in the series on Mus musculus [7], 17.5%. This compound registered a 1/n in series [3] of 0.063. This compound also came in with a Binding constant with Nucleic Acid of 560. Also, the Relative activity came to 0.71 in [4] and 0.28 in series [6]. This compound also yielded a Partition coefficient in series [5] of 120. Besides, in series [8], the Number came out at 15.9. Moreover, the Solubility in [9] (buffer) is listed as 0.000105 M l-1.
With `COc1c2occc2cc2ccc(=O)oc12` [METHOXSALEN], the Rate constant in [1] was 0.031 min⁻¹. Further, the Inhibition in the series with Mus musculus [2] stood at 39.1%; in the series with Mus musculus [7], 61%. Further, the 1/n in [3] stood at 0.128. For the same compound, in the series with Nucleic Acid, the Binding constant came to 736. Besides, the Relative activity in series [4] and in series [6] was 1 each time. The Number in series [8] came to 7.81.
The compound `Cc1cc(=O)oc2c1ccc1occ(C)c12` showed a Rate constant in series [1] of 0.073 min⁻¹. Also, the Inhibition in the series with Mus musculus [2] stood at 25.82%; in the series on Mus musculus [7], 44.27%. The compound further gave a 1/n in series [3] of 0.08. For the same compound, the Binding constant in the series with Nucleic Acid was found to be 6600. Moreover, the Relative activity came out at 0.66 in series [4] and 0.72 in [6]. The compound also gave a Partition coefficient in [5] of 1190. This compound also yielded a Number in series [8] of 12.5. In addition, the Solubility is 0.000012 M l-1 in [9] (buffer) and 2.6 µg/mL (≈ 12.1 µM) in series [9] (water, read-out: Solubility).
The compound `Cc1cc2c(ccc3ccc(=O)oc32)o1` gave a Rate constant in [1] of 0.021 min⁻¹.
In the case of `Cc1cc(=O)oc2c1ccc1occc12`, in series [1], the Rate constant turned out to be 0.016 min⁻¹.
As to `Cc1coc2ccc3ccc(=O)oc3c12`, the Rate constant in series [1] is 0.037 min⁻¹. The Inhibition with Mus musculus [2] came out at 36.75%; in the series with Mus musculus [7], 58.43%. This compound yielded a 1/n in series [3] of 0.065. For the same compound, in the series with Nucleic Acid, the Binding constant worked out at 975. Besides, the Relative activity in series [4] was found to be 0.94; in [6], 0.95. For the same compound, in [5], the Partition coefficient is on record as 240. The same compound had a Number in series [8] of 15.4. Further, the Solubility worked out at 0.00007 M l-1 in [9] (buffer) and 14 µg/mL (≈ 69.9 µM) in series [9] (water, read-out: Solubility).
`Cc1cc2occc2c2oc(=O)ccc12` came in with a Rate constant in series [1] of 0.034 min⁻¹.

These data come from ChEMBL document CHEMBL1122235, “4'-Methylangelicins: new potential agents for the photochemotherapy of psoriasis” (J Med Chem, 1983).
